Laboratory results as given in patent US10329309B2, “3-(3H-imidazo[4,5-B]pyridin-2-yl)-1H-pyrazolo[4,3-B]pyridines and therapeutic uses thereof” (Samumed, LLC, priority 2015, dated 2019).

Legend:
SW480 colon cancer cells = test: Cell viability assay (CellTiter-Blue), four days; type: cell-based; conditions: Homo sapiens, 96 h; for EC50: CellTiter-Blue cell viability; for inhibition at 10 µM: read-out: percent inhibition at 10 μM (given for EC50 of >10 μM)
Protocol: Representative compounds were screened using the following assay procedure to assess the effect on cell viability as described below.
Each compound was dissolved in DMSO as a 10 mM stock and used to prepare compound source plates. Serial dilution (1:3, 8-point dose-response curves from 10 μM to 0.0045 μM) and compound transfer was performed using the ECHO 550 (Labcyte, Sunnyvale, Calif.) into 96-well clear bottom, black-walled plates (Corning-Costar).
Approximately 2×10^3 SW480 colon cancer cells were seeded into each well and allowed to incubate in the presence or absence of compound for four days at 37° C./5% CO2. Eight replicates of DMSO-treated cells served as controls and cells treated with compound were performed in duplicate.
After incubation, 20 μL of CellTiter-Blue (Promega) was added to each well allowed to incubate for approximately 3 hours. This reagent was a buffered solution which contains resazurin, metabolically active cells were able to reduce rezarurin (blue) into resorufin (pink) which was highly fluorescent. This measured fluorescence was used as a readout for cell viability.
After incubation, the plates were read at Ex 560 nm Em 590 nm (Cytation 3, BioTek). Dose-response curves were generated and EC50 concentration values were calculated using non-linear regression curve fit in the GraphPad Prism (San Diego, Calif.) or Dotmatics' Studies Software (Bishops Stortford, UK). For EC50 of >10 μM, the percent inhibition at 10 μM is provided.

[1] = tested on: primary human fibroblasts derived from IPF patients (LL29 cells), α-smooth muscle actin (αSMA); test: Inhibition of the fibrotic process: TGF-β1-treated primary human fibroblasts from IPF patients, αSMA staining; type: cell-based; conditions: Fibroblast, 96 h, 4 days; for EC50: LL29 fibroblasts from IPF patients, TGF-β1 20 ng/mL, inhibition of fibrotic process; for inhibition at 10 µM: LL29 fibroblasts, TGF-β1 treated, read-out: percent inhibition at 10 μM (given for EC50 of >10 μM)
Text: Representative compounds were screened using primary human fibroblasts (derived from IPF patients) treated with TGF-β1 to determine their ability to inhibit the fibrotic process.
Primary human fibroblasts derived from IPF patients (LL29 cells) [^1Xiaoqiu Liu, et. al., “Fibrotic Lung Fibroblasts Show Blunted Inhibition by cAMP Due to Deficient cAMP Response Element-Binding Protein Phosphorylation”, Journal of Pharmacology and Experimental Therapeutics (2005), 315(2), 678-687; ^2Watts, K. L., et. al., “RhoA signaling modulates cyclin D1 expression in human lung fibroblasts; implications for idiopathic pulmonary fibrosis”, Respiratory Research (2006), 7(1), 88] were obtained from American Type Culture Collection (ATCC) and expanded in F12 medium supplemented with 15% Fetal Bovine Serum and Penicillin/Streptomycin.
Each compound was dissolved in DMSO as a 10 mM stock and used to prepare compound source plates. Serial dilution (1:2, 11-point dose-response curves from 10 μM to 1.87 nM) and compound transfer was performed using the ECHO 550 (Labcyte, Sunnyvale, Calif.) into 384-well clear bottom assay plates (Greiner Bio-One) with appropriate DMSO backfill for a final DMSO concentration of 0.1%. LL29 cells are plated at 1,500 cells/well in 80 μL/well F12 medium supplemented with 1% Fetal Bovine Serum. One hour after addition of the cells, TGF-β1 (Peprotech; 20 ng/mL) was added to the plates to induce fibrosis (ref. 1 and 2 above). Wells treated with TGF-β1 and containing DMSO were used as controls. Cells were incubated at 37° C. and 5% CO2 for 4 days. Following incubation for 4 days, SYTOX green nucleic acid stain (Life Technologies [Thermo Fisher Scientific]) was added to the wells at a final concentration of 1 μM and incubated at room temperature for 30 min. Cells were then fixed using 4% formaldehyde (Electron Microscopy Sciences), washed 3 times with PBS followed by blocking and permeabilization using 3% Bovine Serum Albumin (BSA; Sigma) and 0.3% Triton X-100 (Sigma) in PBS. Cells were then stained with antibody specific to α-smooth muscle actin (αSMA; Abcam) (ref. 1 and 2 above) in 3% Bovine Serum Albumin (BSA; Sigma) and 0.3% Triton X-100 (Sigma) in PBS, and incubated overnight at 4° C. Cells were then washed 3 times with PBS, followed by incubation with Alexa Flor-647 conjugated secondary antibody (Life Technologies [Thermo Fisher Scientific]) and DAPI at room temperature for 1 hour. Cells were then washed 3 times with PBS and plates were sealed for imaging. αSMA staining was imaged by excitation at 630 nm and emission at 665 nm and quantified using the Compartmental Analysis program on the CellInsight CX5 (Thermo Scientific). Dead or apoptotic cells were excluded from analysis based on positive SYTOX green staining. % of total cells positive for αSMA were counted in each well and normalized to the average of 11 wells treated with TGF-β1 on the same plate using Dotmatics' Studies Software. The normalized averages (fold change over untreated) of 3 replicate wells for each compound concentration were used to create dose-responses curves and EC50 values were calculated using non-linear regression curve fit in the Dotmatics' Studies Software. For EC50 of >10 μM, the percent inhibition at 10 μM is provided.

Q: With `CCC(=O)Nc1cncc(-c2ccc3[nH]nc(-c4nc5c(-c6cccc(F)c6)ccnc5[nH]4)c3n2)c1` [Compound 1, N-(5-(3-(7-(3-fluorophenyl)-3H-imidazo[4,5-b]pyridin-2-yl)-1H-pyrazolo [4,3-b]pyridin-5-yl)pyridin-3-yl)propionamide] as the molecule, how does the EC50 (SW480 colon cancer cells) read?
A: Its EC50 is over 10 µM.

Q: And the inhibition at 10 µM (SW480 colon cancer cells)?
A: The inhibition at 10 µM was 19.9%.

Q: And the EC50 [1]?
A: Its EC50 is over 10 µM.

Q: And the inhibition at 10 µM [1]?
A: Its inhibition at 10 µM is 3%.

Q: What does the source list for `Fc1cccc(-c2ccnc3[nH]c(-c4n[nH]c5ccc(-c6ccncc6)nc45)nc23)c1` [Compound 18, 3-(7-(3-fluorophenyl)-3H-imidazo[4,5-b]pyridin-2-yl)-5-(pyridin-4-yl)-1H-pyrazolo[4,3-b]pyridine]?
A: EC50 (SW480 colon cancer cells): > 10 µM; inhibition at 10 µM (SW480 colon cancer cells): 0%; EC50 [1]: > 10 µM; inhibition at 10 µM [1]: 21.4%

Q: How did the EC50 (SW480 colon cancer cells) turn out when `O=C(Nc1cncc(-c2ccc3[nH]nc(-c4nc5c(-c6cccc(F)c6)ccnc5[nH]4)c3n2)c1)C1CC1` [Compound 20, N-(5-(3-(7-(3-Fluorophenyl)-3H-imidazo[4,5-b]pyridin-2-yl)-1H-pyrazolo [4,3-b]pyridin-5-yl)pyridin-3-yl)cyclopropanecarboxamide] was run?
A: Its EC50 is over 10 µM.

Q: What about the inhibition at 10 µM (SW480 colon cancer cells) of the same molecule?
A: Its inhibition at 10 µM is 2.8%.

Q: And the EC50 [1]?
A: Its EC50 is over 10 µM.

Q: And the inhibition at 10 µM [1]?
A: Its inhibition at 10 µM is 20.2%.

Q: With `Fc1cccc(-c2ccnc3[nH]c(-c4n[nH]c5ccc(-c6cncc(CN7CCC(F)(F)C7)c6)nc45)nc23)c1` [Compound 26, 5-(5-((3,3-Difluoropyrrolidin-1-yl)methyl)pyridin-3-yl)-3-(7-(3-fluorophenyl)-3H-imidazo[4,5-b]pyridin-2-yl)-1H-pyrazolo[4,3-b]pyridine] as the molecule, how does the EC50 (SW480 colon cancer cells) read?
A: The EC50 was 0.409 µM.

Q: And the EC50 [1]?
A: Its EC50 is 0.344 µM.

Q: `CC(C)(C)C(=O)Nc1cncc(-c2ccc3[nH]nc(-c4nc5c(-c6ccc(F)cc6)ccnc5[nH]4)c3n2)c1` [Compound 36, N-(5-(3-(7-(4-fluorophenyl)-3H-imidazo[4,5-b]pyridin-2-yl)-1H-pyrazolo [4,3-b]pyridin-5-yl)pyridin-3-yl)pivalamide] was tested. Which EC50 (SW480 colon cancer cells) did it give?
A: The EC50 was over 10 µM.

Q: What about the inhibition at 10 µM (SW480 colon cancer cells) of the same molecule?
A: The inhibition at 10 µM was 15%.

Q: And the EC50 [1]?
A: The EC50 was 2.56 µM.

Q: Which results are given for `Fc1ccc(-c2ccnc3[nH]c(-c4n[nH]c5ccc(-c6cncnc6)nc45)nc23)cc1` [Compound 55, 3-(7-(4-Fluorophenyl)-3H-imidazo[4,5-b]pyridin-2-yl)-5-(pyrimidin-5-yl)-1H-pyrazolo[4,3-b]pyridine]?
A: EC50 (SW480 colon cancer cells): 0.171 µM; EC50 [1]: 0.063 µM

Q: Which EC50 (SW480 colon cancer cells) does the source give for `Nc1cncc(-c2ccc3[nH]nc(-c4nc5c(-c6ccccc6F)ccnc5[nH]4)c3n2)c1` [Compound 59, 5-(3-(7-(2-fluorophenyl)-3H-imidazo[4,5-b]pyridin-2-yl)-1H-pyrazolo[4,3-b]pyridin-5-yl)pyridin-3-amine] here?
A: The EC50 was over 10 µM.

Q: And the inhibition at 10 µM (SW480 colon cancer cells)?
A: The inhibition at 10 µM was 21.5%.

Q: And the EC50 [1]?
A: Its EC50 is 2.41 µM.

Q: With `CC(C)C(=O)Nc1cncc(-c2ccc3[nH]nc(-c4nc5c(-c6ccccc6F)ccnc5[nH]4)c3n2)c1` [Compound 65, N-(5-(3-(7-(2-fluorophenyl)-3H-imidazo[4,5-b]pyridin-2-yl)-1H-pyrazolo [4,3-b]pyridin-5-yl)pyridin-3-yl)isobutyramide] as the molecule, how does the EC50 (SW480 colon cancer cells) read?
A: The EC50 was over 10 µM.

Q: And the inhibition at 10 µM (SW480 colon cancer cells)?
A: The inhibition at 10 µM was 7.5%.

Q: And the EC50 [1]?
A: Its EC50 is over 10 µM.

Q: And the inhibition at 10 µM [1]?
A: The inhibition at 10 µM was 0%.

Q: What does the source list for `O=C(Nc1cncc(-c2ccc3[nH]nc(-c4nc5c(-c6ccccc6F)ccnc5[nH]4)c3n2)c1)C1CCCC1` [Compound 78, N-(5-(3-(7-(2-fluorophenyl)-3H-imidazo[4,5-b]pyridin-2-yl)-1H-pyrazolo [4,3-b]pyridin-5-yl)pyridin-3-yl)cyclopentanecarboxamide]?
A: EC50 (SW480 colon cancer cells): > 10 µM; inhibition at 10 µM (SW480 colon cancer cells): 12.3%; EC50 [1]: 2.83 µM

Q: `CC(C)C(=O)Nc1cncc(-c2ccc3[nH]nc(-c4nc5c(-c6cccnc6)ccnc5[nH]4)c3n2)c1` [Compound 93, N-(5-(3-(7-(pyridin-3-yl)-3H-imidazo[4,5-b]pyridin-2-yl)-1H-pyrazolo[4,3-b]pyridin-5-yl)pyridin-3-yl)isobutyramide] was tested. Which EC50 (SW480 colon cancer cells) did it give?
A: The EC50 was over 10 µM.

Q: What about the inhibition at 10 µM (SW480 colon cancer cells) of the same molecule?
A: Its inhibition at 10 µM is 8.1%.

Q: What about the EC50 [1] of the same molecule?
A: The EC50 was over 10 µM.

Q: What about the inhibition at 10 µM [1] of the same molecule?
A: Its inhibition at 10 µM is 0%.

Q: For `Cc1ccncc1-c1ccc2[nH]nc(-c3nc4c(-c5ccncc5)ccnc4[nH]3)c2n1` [Compound 117, 5-(4-methylpyridin-3-yl)-3-(7-(pyridin-4-yl)-3H-imidazo[4,5-b]pyridin-2-yl)-1H-pyrazolo[4,3-b]pyridine], which EC50 (SW480 colon cancer cells) is on record?
A: The EC50 was over 10 µM.

Q: What about the inhibition at 10 µM (SW480 colon cancer cells) of the same molecule?
A: The inhibition at 10 µM was 1.7%.

Q: What about the EC50 [1] of the same molecule?
A: Its EC50 is over 10 µM.

Q: And the inhibition at 10 µM [1]?
A: Its inhibition at 10 µM is 2.8%.

Q: What does the source list for `O=C(Cc1ccccc1)Nc1cncc(-c2ccc3[nH]nc(-c4nc5c(-c6ccncc6)ccnc5[nH]4)c3n2)c1` [Compound 122, 2-phenyl-N-(5-(3-(7-(pyridin-4-yl)-3H-imidazo[4,5-b]pyridin-2-yl)-1H-pyrazolo[4,3-b]pyridin-5-yl)pyridin-3-yl)acetamide]?
A: EC50 (SW480 colon cancer cells): > 10 µM; inhibition at 10 µM (SW480 colon cancer cells): 4.4%; EC50 [1]: > 10 µM; inhibition at 10 µM [1]: 0%

Q: Which results are given for `CCCC(=O)Nc1cncc(-c2ccc3[nH]nc(-c4nc5c(-c6ccncc6)ccnc5[nH]4)c3n2)c1` [Compound 129, N-(5-(3-(7-(pyridin-4-yl)-3H-imidazo[4,5-b]pyridin-2-yl)-1H-pyrazolo[4,3-b]pyridin-5-yl)pyridin-3-yl)butyramide]?
A: EC50 (SW480 colon cancer cells): > 10 µM; inhibition at 10 µM (SW480 colon cancer cells): 5.7%; EC50 [1]: > 10 µM; inhibition at 10 µM [1]: 0%

Q: Which results are given for `c1cc(-c2ccc3[nH]nc(-c4nc5c(-c6ccncc6)ccnc5[nH]4)c3n2)ccn1` [Compound 130, 5-(pyridin-4-yl)-3-(7-(pyridin-4-yl)-3H-imidazo[4,5-b]pyridin-2-yl)-1H-pyrazolo [4,3-b]pyridine]?
A: EC50 (SW480 colon cancer cells): > 10 µM; inhibition at 10 µM (SW480 colon cancer cells): 0%; EC50 [1]: > 10 µM; inhibition at 10 µM [1]: 39.3%

Q: What does the source list for `O=C(Nc1cncc(-c2ccc3[nH]nc(-c4nc5c(-c6ccncc6)ccnc5[nH]4)c3n2)c1)C1CCCCC1` [Compound 135, N-(5-(3-(7-(pyridin-4-yl)-3H-imidazo[4,5-b]pyridin-2-yl)-1H-pyrazolo[4,3-b]pyridin-5-yl)pyridin-3-yl)cyclohexanecarboxamide]?
A: EC50 (SW480 colon cancer cells): > 10 µM; inhibition at 10 µM (SW480 colon cancer cells): 3.8%; EC50 [1]: > 10 µM; inhibition at 10 µM [1]: 0%

Q: `CCNCc1cncc(-c2ccc3[nH]nc(-c4nc5c(-c6ccccn6)ccnc5[nH]4)c3n2)c1` [Compound 146, N-((5-(3-(7-(pyridin-2-yl)-3H-imidazo[4,5-b]pyridin-2-yl)-1H-pyrazolo[4,3-b]pyridin-5-yl)pyridin-3-yl)methyl)ethanamine] was tested. Which EC50 (SW480 colon cancer cells) did it give?
A: The EC50 was over 10 µM.

Q: And the inhibition at 10 µM (SW480 colon cancer cells)?
A: Its inhibition at 10 µM is 23.3%.

Q: And the EC50 [1]?
A: Its EC50 is 1.13 µM.

Q: With `O=C(Nc1cncc(-c2ccc3[nH]nc(-c4nc5c(-c6ccccn6)ccnc5[nH]4)c3n2)c1)c1ccccc1` [Compound 151, N-(5-(3-(7-(Pyridin-2-yl)-3H-imidazo[4,5-b]pyridin-2-yl)-1H-pyrazolo[4,3-b]pyridin-5-yl)pyridin-3-yl)benzamide] as the molecule, how does the EC50 (SW480 colon cancer cells) read?
A: The EC50 was over 10 µM.

Q: What about the inhibition at 10 µM (SW480 colon cancer cells) of the same molecule?
A: The inhibition at 10 µM was 2.7%.

Q: What about the EC50 [1] of the same molecule?
A: Its EC50 is over 10 µM.

Q: What about the inhibition at 10 µM [1] of the same molecule?
A: The inhibition at 10 µM was 0%.
